According to the CheMixHub ionic liquid set:
Several values for one entry are separate records, joined by “and”; a condition that tells them apart may be missing. Equal entries are not always repeated.

Assay: xn = mol fraction of the nth substance listed

C[S+](C)C.O=S(=O)([N-]S(=O)(=O)C(F)(F)F)C(F)(F)F + CC1COC(=O)O1
101 kPa
Conditions	electrical conductivity [S/m]
283.15 K, x2 = 0.76	0.862
298.15 K, x1 = 0.0005	0.035
298.15 K, x1 = 0.0008	0.044
298.15 K, x2 = 0.6202	1.29
333.15 K, x2 = 0.76	2.54

C[S+](C)C.O=S(=O)([N-]S(=O)(=O)C(F)(F)F)C(F)(F)F + CC#N
101 kPa
Conditions	electrical conductivity
264.85 K, x2 = 0.87	3.61 S/m
273.15 K, x2 = 0.87	4.06 S/m
298.15 K, x1 = 0.0001	0.027 S/m and 0.059 S/m
298.15 K, x1 = 0.0005	0.208 S/m
323.15 K, x2 = 0.87	6.94 S/m

CC(=O)[O-].CCCC[N+](CCCC)(CCCC)CCCC + CC(=O)O + O
303.15 K, 100 kPa
Conditions	viscosity [mPa·s]
x2 = 0, x3 = 0.0263	680
x2 = 0.0971, x3 = 0.0291	460
x2 = 0.194, x3 = 0.0301	297
x2 = 0.3213, x3 = 0.0263	169
x2 = 0.4883, x3 = 0.0234	83
x2 = 0.6588, x3 = 0.0167	41
x2 = 0.7897, x3 = 0.0128	25
x2 = 0.8911, x3 = 0.0099	19

NCCCNCCCN + CC(=O)[O-].CCCC[n+]1ccn(C)c1 + O
viscosity [mPa·s], 101 kPa
Conditions	298.15 K	303.15 K	308.15 K	313.15 K	318.15 K	323.15 K	328.15 K	333.15 K
x2 = 0.03479, x1 = 0.0177	3.36	3.32	3.14	2.86	2.61	2.28	1.96	1.77
x2 = 0.03897, x1 = 0.01333	3.54	3.51	3.28	2.95	2.66	2.52	2.34	2.15
x2 = 0.04311, x1 = 0.00893	3.88	3.76	3.32	2.96	2.74	2.62	2.37	2.24

CC(C)=O + CC(=O)[O-].CC[NH2+]CC
Conditions	viscosity [mPa·s]
298.15 K, 101 kPa, x2 = 0	0.309

CCCCCC[n+]1ccn(C)c1.F[B-](F)(F)F + CC(C)(C)O
298.15 K, 101 kPa
Conditions	viscosity [mPa·s]
x2 = 0.3074	69.2
x2 = 0.8007	13.92

CCCCCCCCCCCCCCCC[n+]1ccccc1.O=C([O-])C(O)c1ccccc1 + CC(C)C[C@H](N)C(=O)O + O
electrical conductivity [S/m], 101 kPa
Conditions	293.15 K	298.15 K	303.15 K	308.15 K	313.15 K
x1 = 9.1e-07, x2 = 0.001799	0.00171	0.00194	0.00216	0.0024	0.0027
x1 = 1.08e-06, x2 = 0	0.00061	0.00068	0.00076	0.00083	0.0009
x1 = 1.27e-06, x2 = 0.0009002	0.00143	0.0016	0.0018	0.002	0.0022
x1 = 1.98e-06, x2 = 0	0.001	0.0012	0.0013	0.0014	0.0016
x1 = 2.19e-06, x2 = 0.001799	0.00211	0.00239	0.00267	0.003	0.0033
x1 = 2.54e-06, x2 = 0.0009002	0.00187	0.00211	0.00235	0.0026	0.0029
x1 = 2.88e-06, x2 = 0	0.00147	0.0016	0.0018	0.002	0.0022
x1 = 3.1e-06, x2 = 0.001799	0.00244	0.00277	0.00309	0.0034	0.0038
x1 = 3.44e-06, x2 = 0.0009002	0.0022	0.00251	0.00278	0.0031	0.0034
x1 = 3.96e-06, x2 = 0	0.0019	0.0022	0.0024	0.0026	0.0029
x1 = 4.19e-06, x2 = 0.001799	0.00279	0.00316	0.00352	0.0039	0.0043
x1 = 4.69e-06, x2 = 0	0.0023	0.0026	0.0029	0.0031	0.0035
x1 = 4.71e-06, x2 = 0.0009002	0.00261	0.00294	0.00329	0.0036	0.004
x1 = 5.1e-06, x2 = 0.001799	0.00312	0.00353	0.00394	0.0044	0.0048
x1 = 5.95e-06, x2 = 0	0.00281	0.0032	0.0035	0.0038	0.0042
x1 = 5.98e-06, x2 = 0.0009002	0.00307	0.00345	0.00384	0.0043	0.0047
x1 = 6.74e-06, x2 = 0.001799	0.00363	0.0041	0.00457	0.0051	0.0056
x1 = 7.21e-06, x2 = 0	0.00341	0.0038	0.0042	0.0046	0.0051
x1 = 7.43e-06, x2 = 0.0009002	0.00352	0.00397	0.00441	0.0049	0.0054
x1 = 8.2e-06, x2 = 0.001799	0.00408	0.00463	0.00516	0.0057	0.0064
x1 = 8.7e-06, x2 = 0.0009002	0.00394	0.00445	0.00497	0.0055	0.0061
x1 = 8.83e-06, x2 = 0	0.00406	0.0046	0.005	0.0055	0.006
x1 = 9.84e-06, x2 = 0.001799	0.00451	0.00511	0.00572	0.0064	0.0071
x1 = 1.045e-05, x2 = 0	0.00469	0.0053	0.0058	0.0065	0.0071
x1 = 1.051e-05, x2 = 0.0009002	0.00444	0.00501	0.0056	0.0062	0.0069
x1 = 1.13e-05, x2 = 0.001799	0.00486	0.00551	0.00618	0.0069	0.0077
x1 = 1.196e-05, x2 = 0.0009002	0.00475	0.00538	0.006	0.0067	0.0075
x1 = 1.207e-05, x2 = 0	0.00516	0.0058	0.0064	0.0071	0.0079
x1 = 1.294e-05, x2 = 0.001799	0.00522	0.00591	0.00661	0.0074	0.0082
x1 = 1.323e-05, x2 = 0.0009002	0.00506	0.00573	0.0064	0.0071	0.0079
x1 = 1.351e-05, x2 = 0	0.00562	0.00631	0.007	0.0077	0.0085
x1 = 1.44e-05, x2 = 0.001799	0.00556	0.00629	0.00704	0.0079	0.0088
x1 = 1.468e-05, x2 = 0.0009002	0.00539	0.00609	0.0068	0.0076	0.0084
x1 = 1.478e-05, x2 = 0	0.00603	0.0068	0.0075	0.0083	0.0092
x1 = 1.585e-05, x2 = 0.001799	0.00586	0.00664	0.00743	0.0083	0.0092
x1 = 1.595e-05, x2 = 0.0009002	0.00568	0.00642	0.0072	0.008	0.0089
x1 = 1.622e-05, x2 = 0	0.00644	0.0072	0.008	0.0089	0.0098
x1 = 1.722e-05, x2 = 0.0009002	0.00598	0.00676	0.0075	0.0084	0.0093
x1 = 1.731e-05, x2 = 0.001799	0.00617	0.00698	0.00783	0.0087	0.0097
x1 = 1.766e-05, x2 = 0	0.00687	0.0077	0.0085	0.0094	0.0104

CCCCCC[n+]1ccn(C)c1.F[B-](F)(F)F + CC(C)O
101 kPa
Conditions	viscosity [mPa·s]
293.15 K, x2 = 0.9165	3.61
303.15 K, x2 = 0.1493	68.1
303.15 K, x2 = 0.3752	26.9
303.15 K, x2 = 0.5845	11.6
303.15 K, x2 = 0.7067	7.02
303.15 K, x2 = 0.762	5.47
313.15 K, x2 = 0.2992	24.9
313.15 K, x2 = 0.762	3.99
323.15 K, x2 = 0	50.3
323.15 K, x2 = 0.2289	21.4
323.15 K, x2 = 0.2992	18.8
333.15 K, x2 = 0	34
333.15 K, x2 = 0.1493	20.7
333.15 K, x2 = 0.3752	10.33
333.15 K, x2 = 0.762	2.35

COP(=O)([O-])OC.Cn1cc[n+](C)c1 + CC(C)O
101 kPa
Conditions	viscosity [mPa·s]
293.15 K, x2 = 0	416
293.15 K, x2 = 0.0999	357
298.15 K, x2 = 0.2032	183
298.15 K, x2 = 0.5002	53.3
298.15 K, x2 = 0.7009	17.98
303.15 K, x2 = 0.5002	43.28
308.15 K, x2 = 0.7009	13.26
308.15 K, x2 = 0.9013	3.819
313.15 K, x2 = 0	119.2
313.15 K, x2 = 0.0999	106.6
313.15 K, x2 = 0.2032	82.2
313.15 K, x2 = 0.301	63.1
318.15 K, x2 = 0.2032	66.1
318.15 K, x2 = 0.5002	25.15
318.15 K, x2 = 0.7009	10.13
323.15 K, x2 = 0.5002	21.5
323.15 K, x2 = 0.9013	2.638

CCCCCC[n+]1ccn(C)c1.F[B-](F)(F)F + CC(C)O + CCCO
viscosity [mPa·s], 101 kPa
Conditions	293.15 K	303.15 K	313.15 K
x2 = 0.0547, x3 = 0.092	153.8	92	–
x2 = 0.0978, x3 = 0.4041	31.47	21.38	15.28
x2 = 0.1003, x3 = 0.7991	4.92	3.33	2.35
x2 = 0.1006, x3 = 0.6013	13.2	9.16	6.69
x2 = 0.1012, x3 = 0.4996	20.14	13.93	10.1
x2 = 0.1014, x3 = 0.7009	8.3	5.74	4.16
x2 = 0.1116, x3 = 0.2875	49.62	32.6	22.59
x2 = 0.1293, x3 = 0.1504	85.1	53.44	–
x2 = 0.1973, x3 = 0.1121	75.21	48.39	32.33
x2 = 0.1985, x3 = 0.4006	20.51	14.2	10.17
x2 = 0.1992, x3 = 0.3012	32.59	21.43	15.29
x2 = 0.2003, x3 = 0.2005	49.41	32.39	22.5
x2 = 0.2003, x3 = 0.4992	13.3	9.31	6.79
x2 = 0.2012, x3 = 0.6984	5	3.35	2.37
x2 = 0.2977, x3 = 0.1042	50.06	32.73	22.7
x2 = 0.2999, x3 = 0.4989	8.8	6.05	4.35
x2 = 0.3037, x3 = 0.4006	13.28	9.19	6.68
x2 = 0.3046, x3 = 0.5961	5.05	3.39	2.36
x2 = 0.3058, x3 = 0.3005	20.27	13.93	10.1
x2 = 0.3977, x3 = 0.2999	13.8	9.55	6.92
x2 = 0.3985, x3 = 0.104	31.6	21.33	15.15
x2 = 0.3987, x3 = 0.3005	13.61	9.43	6.88
x2 = 0.3989, x3 = 0.3998	8.77	6.02	4.33
x2 = 0.3989, x3 = 0.5015	5.18	3.4	2.38
x2 = 0.4002, x3 = 0.1968	21.12	14.53	10.38
x2 = 0.4992, x3 = 0.4006	5.21	3.47	2.4
x2 = 0.5004, x3 = 0.0998	20.98	14.38	10.33
x2 = 0.5013, x3 = 0.3019	8.68	5.91	4.23
x2 = 0.5734, x3 = 0.2335	8.61	5.85	4.17
x2 = 0.6, x3 = 0.0992	13.73	9.47	6.84
x2 = 0.6001, x3 = 0.3004	5.39	3.43	2.38
x2 = 0.6942, x3 = 0.1049	8.82	5.98	4.27
x2 = 0.698, x3 = 0.2007	5.44	3.54	2.45
x2 = 0.7991, x3 = 0.101	5.41	3.47	2.37

COP(=O)([O-])OC.Cn1cc[n+](C)c1 + CC(C)O + O
100 kPa
Conditions	viscosity [mPa·s]
298.15 K, x2 = 0.248, x3 = 0.2507	83
303.15 K, x2 = 0.2, x3 = 0.1998	87
313.15 K, x2 = 0.148, x3 = 0.1518	81
323.15 K, x2 = 0.1, x3 = 0.0988	80
333.15 K, x2 = 0.044, x3 = 0.043	92
